How the values were obtained:
human Ly6K protein = molecular target: T1, human Ly6K protein (Homo sapiens, UniProt Q17RY6); assay: Surface plasmon resonance binding to immobilized Ly6K (Biacore T100)
T1 construct: correspond to residues 18-138, which constitute the mature form of Ly6K; His tag (N); made in house; host or cells: E. coli BL21DE
T1 sequence (Q17RY6 18-138): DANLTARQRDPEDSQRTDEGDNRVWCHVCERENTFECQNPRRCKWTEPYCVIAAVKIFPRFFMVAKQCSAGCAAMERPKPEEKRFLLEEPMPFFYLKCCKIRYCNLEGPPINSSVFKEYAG
Protocol: (§1) FIG. 11: Small molecule binders of Ly6K. (A) Mature form of Ly6E, Ly6D and Ly6K were cloned in pET24a N-term His tag vector (Epoch Biosciences); expressed in BL21DE E. coli; purified recombinant protein was prepared using histidine column in using a batch purification method and eluted in 500 mM imidazole PBS, dialyzed in PBS. 5 μl of eluate was run on the 15% SDS-PAGE showing the purity with expected size protein of single band. (B) Structure of NSC243928. (G) Structure of NSC11150. (C-F; H-K) Representative surface plasmon resonance (SPR) sensorgrams show time on X-axis and SPR binding response on Y-axis. […] The corresponding data for NSC11150 are shown in corresponding lower panel.
We used surface plasmon resonance to identify small molecule binders of Ly6K. We screened a panel of 2000 small molecules, obtained from the Developmental Therapeutic Program (DTP, NCI). […] These five molecules were further tested for their ability to induce cell death, TGFβ1/Smad2/3 phosphorylation, IFNγ/Stat1 phosphorylation and PD-L1 protein expression. NSC243928 and NSC11150 were selected for further study on the basis of specificity and selectivity in bio-assays and structural flexibility, which allow future modifications required for in-depth studies (described in FIG. 11). The small molecule NSC243928 has been previously used in an in vivo anti-tumor screen by the NCI on a L1210 leukemia model in BDF1 syngeneic mice, a standard model used between 1955 and 1975. The average survival in this tumor model is 2-3 weeks. Treatment with NSC243928 increased survival benefit from 30% to 100% in a dose dependent manner. […] NSC11150 was not tested in in-vivo or in-vitro anti-tumor screens. […] As discussed infra, NSC243928 and NSC11150 inhibit TGFβ and PD-L1 pathways in a Ly6K dependent manner, indicating a mechanistic basic for the novel activities of these compounds (please see FIG. 11, 12). These experiments provide proof of the principle that small molecule targeting of Ly6K will have functional consequences and potentially lead to a better outcome in cancer treatment. […]

Ly6E = molecular target: T2, Ly6E (Homo sapiens, UniProt Q16553); assay: Surface plasmon resonance binding to Ly6E
T2 construct: Mature form of Ly6E, Ly6D and Ly6K were cloned in pET24a N-term His tag vector; His tag (N); made in house; host or cells: E. coli BL21DE
T2 sequence (Q16553 21-101 limits assumed): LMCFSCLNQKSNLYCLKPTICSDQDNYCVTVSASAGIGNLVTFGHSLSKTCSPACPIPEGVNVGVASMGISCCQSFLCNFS
Protocol: as §1
(§2) We performed a surface plasmon resonance assay using the Biacore T100 by immobilizing the purified human Ly6K protein on the surface of a CM5 chip and screening the binding with a small molecule library containing 2000 compounds (Developmental Therapeutics Program, NCI). An initial screening of molecules was performed at 1 or 10 μM compound, based on solubility. We used a model that compares the actual binding maximum (RUactual) with the theoretical binding maximum (RUtheor). […] Hits (RUactual to RUtheor of 0.7-2.0) were then reviewed by a team of medicinal chemists and those with structural potential were selected for further study. […]

Ly6D = molecular target: T3, Ly6D (Homo sapiens, UniProt Q14210); assay: Surface plasmon resonance binding to Ly6D
T3 construct: Mature form of Ly6E, Ly6D and Ly6K were cloned in pET24a N-term His tag vector; His tag (N); made in house; host or cells: E. coli BL21DE
T3 sequence (Q14210 21-98 limits assumed): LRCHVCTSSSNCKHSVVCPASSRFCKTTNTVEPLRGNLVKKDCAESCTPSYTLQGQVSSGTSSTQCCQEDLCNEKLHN
Protocol: as §1, §2

[1] = tested on: MDA-MB-231 cells (control and Ly6K knockdown); assay: Cell titer assay of cell growth / cell death; format: cell-based, human; details: for Cell growth: 72 hours
Protocol: FIG. 12: Effect of small molecule binders of Ly6K. […] Cell titer assay was performed to measure cell growth. (B) Cells were serum starved and treated with 100 ng/ml IFNγ with 2 μM drugs. PD-L1 was measure in live cells (using a zombie live-dead stain) as described in FIG. 3A. The graph was plotted from three experiments. (C, D) Indicated cells were allowed to attach, serum starved overnight and then treated with TGFβ (C) or IFNγ (D) in the presence of 2 μM drug for 30 minutes and western blot analysis was performed. The *** represents p<0.0005 and NS=non-significant in a two-tailed student T-test.
(§3) NSC243928 inhibited the TGFβ1 induced phosphorylation of Smad2/3; NSC11150 had no effect on TGFβ1/Smad2/3 signaling (FIG. 12C). NSC11150 inhibited IFNγ induced phosphorylation of Stat1; NSC243928 had no effect on IFNγ/Stat1 signaling (FIG. 12D).

PD-L1 = assay: IFNγ-induced PD-L1 protein expression in live cells (flow cytometry); format: cell-based, human; details: control cells, 100 ng/ml IFNγ, 2 μM drug
Protocol: FIG. 3: Ly6K is required for IFNγ/PD-L1 pathway. (A) Indicated cells were serum starved prior to treatment with IFNγ 100 ng/ml overnight. Cells were labeled with anti-PD-L1 BV540 antibody or isotype control antibody prior to fixation to assess the cell surface expression of PD-L1 protein. Percentage of high PD-L1 cells were plotted in a bar graph from three different experiments and subjected to a two tailed student T-test, wherein p<0.05 is considered significant. (B) Western blotting analysis for indicated proteins. (C) Hypothesized effect of Ly6K on IFNγ/Stat1 pathway leading to increased PD-L1.
FIG. 12: Effect of small molecule binders of Ly6K. (A) Indicated cells were seeded and allowed to attach overnight, then treated with 2 μM drugs for 72 hours. Cell titer assay was performed to measure cell growth. (B) Cells were serum starved and treated with 100 ng/ml IFNγ with 2 μM drugs. PD-L1 was measure in live cells (using a zombie live-dead stain) as described in FIG. 3A. The graph was plotted from three experiments. (C, D) Indicated cells were allowed to attach, serum starved overnight and then treated with TGFβ (C) or IFNγ (D) in the presence of 2 μM drug for 30 minutes and western blot analysis was performed. The *** represents p<0.0005 and NS=non-significant in a two-tailed student T-test. […]

TGFβ1/Smad2/3 signaling = assay: TGFβ1-induced Smad2/3 phosphorylation (western blot); format: cell-based, human; details: 2 μM drug, 30 minutes
Protocol: (§4) FIG. 12: Effect of small molecule binders of Ly6K. (A) Indicated cells were seeded and allowed to attach overnight, then treated with 2 μM drugs for 72 hours. Cell titer assay was performed to measure cell growth. (B) Cells were serum starved and treated with 100 ng/ml IFNγ with 2 μM drugs. PD-L1 was measure in live cells (using a zombie live-dead stain) as described in FIG. 3A. The graph was plotted from three experiments. (C, D) Indicated cells were allowed to attach, serum starved overnight and then treated with TGFβ (C) or IFNγ (D) in the presence of 2 μM drug for 30 minutes and western blot analysis was performed. The *** represents p<0.0005 and NS=non-significant in a two-tailed student T-test.
as §3

IFNγ/Stat1 signaling = assay: IFNγ-induced Stat1 phosphorylation (western blot); format: cell-based, human; details: 2 μM drug, 30 minutes
Protocol: as §4, §3

4T1 mammary tumor = 4T1 mammary tumor growth in syngeneic mouse model; format: in vivo, mice (Balb/c); details: 5 mg/kg/i.p. after tumor establishment at 50-70 mm^3
Description: FIG. 4: Ly6K is required for tumor growth in syngeneic mammary tumor models. (A) The qRT-PCR analysis using […] gene expression assay for mRNA levels in scrambled shRNA (Con) and Ly6K knockdown (Ly6K sh) cells. (B) The western blot analysis (cell signaling antibodies). (C) For 4T1 model, 20K cells/site in Balb/c mice and for E0771, 500K cells/site in C57BL/6 syngeneic mice were transplanted into lower mammary fat pad by subcutaneous injection (number of mice 10 per cell line pair). Tumor measurements were performed using a Vernier caliper. The tumor volumes were calculated using equation 1⁄2*length*(width*width). ** indicates p<0.001 and NS=non-significant (p>0.05) in a two tailed student T-test. FIG. 5: Effect of small molecules on in vivo tumor growth. (A) NCI data-Indicated doses of NSC243928 in saline were given by intraperitoneal route (i.p.) every day for 9 days to BIDF syngeneic mice carrying […] leukemia cells. Each group has 6 mice. Mouse were monitored for 30 days after drug treatment. […] The ** represents p<0.005 in a two tailed student T-test. Each group has 10 mice. We used surface plasmon resonance to identify small molecule binders of Ly6K. We screened a panel of 2000 small molecules, obtained from the Developmental Therapeutic Program (DTP, NCI). […]

[2] = Preliminary experiments for maximum tolerated dose; format: in vivo; details: 5 mg/kg/ip
L1210 leukemia = details: up to 10 mg/kg/i.p.; cited from earlier work

CCS(=O)(=O)Nc1ccc(Nc2c3ccccc3nc3ccccc23)c(OC)c1.CS(=O)(=O)O [NSC243928, 4′-(9-Acridinylamino)-3′-methoxyethanesulfonanilide methanesulfonate]
SPR binding response to Ly6K (human Ly6K protein): binding response in dose dependent manner | SPR binding response to Ly6E (Ly6E): don't show binding response | SPR binding response to Ly6D (Ly6D): don't show binding response | Cell growth ([1]; Ly6K knockdown MDA-MB-231 cells, 2 μM): lost its activity | Cell growth ([1]; control MDA-MB-231 cells, 2 μM): diminished the growth | PD-L1 protein expression (PD-L1): did not show significant effect | TGFβ1 induced phosphorylation of Smad2/3 (TGFβ1/Smad2/3 signaling): inhibited | IFNγ induced phosphorylation of Stat1 (IFNγ/Stat1 signaling): had no effect | 4T1 mammary tumor growth (4T1 mammary tumor): suppress 4T1 mammary tumor growth | Therapeutic benefit [2]: therapeutic benefit | Visible toxicity [2]: no visible toxicity | Toxicity (L1210 leukemia): not found to be toxic

Oc1ccc(Cc2ccc(Cl)cc2)c(O)c1 [NSC11150, 4-(4-chlorobenzyl)benzene-1,3-diol]
SPR binding response to Ly6K (human Ly6K protein): binding response in dose dependent manner | Kd (human Ly6K protein; SPR): 1600 nM | SPR binding response to Ly6E (Ly6E): don't show binding response | SPR binding response to Ly6D (Ly6D): don't show binding response | Effect on cell death ([1]; 2 μM): did not show significant effect | Cell death ([1]; 100 μM, both control and Ly6K knockdown cells): induced cell death | PD-L1 protein expression (PD-L1): inhibition of PD-L1 expression | TGFβ1 induced phosphorylation of Smad2/3 (TGFβ1/Smad2/3 signaling): had no effect | IFNγ induced phosphorylation of Stat1 (IFNγ/Stat1 signaling): inhibited | 4T1 mammary tumor growth (4T1 mammary tumor): suppress 4T1 mammary tumor growth | Therapeutic benefit [2]: therapeutic benefit
